Measurements from patent publication US20040019018A1, “Rigid pyrrolidone modulators of pkc” (priority 2003, published 2004).

What was measured:
[1] = molecular target: whole brain PKC; assay: [3H]PDBu displacement from unresolved mixture of PKC isozymes from whole brain extracts; format: binding; conditions: [3H]PDBu competition
Procedure: The ability of representative compounds of the invention to bind specific isozymes of PKC was determined using an assay (Example 13) in which displacement of [20-^3H]phorbol -12,13-dibutyrate ([^3H]PDBu) from either recombinant PKC isozymes prepared in a Baculovirus system, or unresolved mixture of isozymes of PKC isolated from whole brain extracts, was used. These procedures are described below. As described in detail below, preferred compounds for neurological effects are those in which affinity for α, β and γ isozymes is the greatest (i.e. those having the lowest Ki) relative to other isozymes as such as the δ- and ε-isozymes shown in Table 1. […]
Analysis of [20-^3H]phorbol 12,13-dibutyrate binding to PKC. […] Phosphatidylserine and bovine […] were obtained from Sigma Chemical Co. Binding was determined in an incubation volume of 250 μl, containing [^3H]PDBu, PKC, 0.05 M Tris-Cl, pH 7.4, 100 μg/ml phosphatidylserine, various concentrations of the ligand being assayed for competition of [^3H]PDBu binding, and bovine […] at 1 mg/ml. […] [^3H]PDBu was used at a concentration twice the Kd previously determined for the specific receptor. […]
Specific binding represents the difference between total binding and the non-specific binding, where the latter value was calculated from the partition coefficient and the measured free [^3H]PDBu concentration in each tube. […]

[2] = tested on: PKC catalytic subunit; assay: Translocation of PKC catalytic subunit to the membrane fraction in human fibroblasts (Western blot); format: cell-based; conditions: 15 min treatment, preliminary results
Procedure: A growing list of evidence implicated that protein kinase C (PKC) activation can increase the rate of the non-amyloidogenic, i.e. α-secretase processing in vitro.
Human fibroblasts were grown to confluence in 100 mm tissue culture dishes. On the day of the experiment, cells were rinsed twice with serum-free Dulbecco's modified Eagle's medium (DMEM) and incubated in the same medium for 2 hours. Cells were treated with the drugs above, or DMSO vehicle as control, for 15 min. The cells were then rinsed twice with ice-cold phosphate buffered saline (PBS), scraped in PBS, and collected by centrifugation. The pellets were suspended in homogenization buffer containing: 20 mM Tris-HCl, pH 7.5, 2 mM EDTA, 2 mM EGTA, 5 mM DTT, 0.32 M sucrose, 2 mM PMSF, […] aprotinin, and 20 µg/ml leupeptin. Homogenates were immersed in liquid nitrogen thawed, and centrifuged at 12,000 g for 20 min, and supernatants were used as the cytosolic fraction (C). The pellets were homogenized in the same buffer containing 1.0% Triton X-100, incubated on ice for 45 min, and centrifuged at 12,000 g for 30 min and the supernatants were used as the membrane fractions (M). After protein determination, equal amounts of proteins (approx. […]) were mixed with electrophoresis buffer, boiled for 5 min, and separated on 8% SDS-PAGE, and electrophoretically transferred to PVDF membranes. […]

[3] = tested on: sAPP α; assay: Secreted APP from human fibroblasts, Western blot with 6E10 (Example 14); format: cell-based; conditions: human fibroblasts (AD patients)
Procedure: Human fibroblasts were grown to confluence as above for PKC translocation. On the day of the experiment, cells were rinsed twice with serum-free Dulbecco's modified Eagle's medium (DMEM) and incubated in the same medium for 2 hours. Cells were treated with the drugs above, or DMSO vehicle as a control, for 2 hours. The medium was collected and spun for 5 min in a clinical centrifuge to remove cell debris. Proteins in the cell medium were precipitated using 10% trichloroacetic acid (TCA). Precipitated proteins were dissolved in electrophoresis buffer, separated on 8% SDS-PAGE as described above. Secreted APP was detected by Western blotting using a specific monoclonal antibody, 6E10.

Compound	Ki [1] [µM]	translocation of PKC catalytic subunit from the cytosolic to the membrane fractions (activation) [2]	secretion of sAPP [3]
CCCCCCCCC#Cc1ccc2c(c1)C(C)(C(C)C)C1C(=O)NC(CO)C21 [Compound 1, (3S, 8R, 9S, 10S)-6-(dec-1′-ynyl)-3-hydroxymethyl-8-isopropyl-8-methyl-3,3a,8,8a-tetrahydro-2H-2-aza-cyclopenta[a]inden-1-one]	> 10	able to cause the translocation	increased the secretion of sAPP
CCCCCCCCCCCC(=O)Oc1ccc2c(c1)[C@](C)(C(C)C)[C@H]1C(=O)N[C@H](CO)[C@@H]21 [Compound 2, (3S, 8R, 9S, 10S)-6-dodecanoyloxyl-3-hydroxymethyl-8-isopropyl-8-methyl-3,3a,8,8a-tetrahydro-2H -2-aza-cyclopenta[a]inden-1-one]	> 10		
